This note sets out measurements from patent US20200277556A1, “USE OF AN ADDITIVE TO IMPROVE THE QUALITY OF BEVERAGES BASED ON PLANT MUSTS” (OENOTROPIC INNOVATION, priority 2017, published 2020).

This assay deals with Wine Proteins. The assay is described as follows: Effect of different cofactors on the activity of bromelain on wine, SDS PAGE. The conditions noted are these: CaCl2 as cofactor of bromelain; data not presented. The format is biochemical. As to the method: Cysteine is known to improve the activity of bromelain. […] To test the relevance of using methionine and glutathione as cofactors of a cysteine protease, the inventors compared the effect of these cofactors to the effect of cysteine on the activity of bromelain in wine. To this end, the following protocol has been implemented: • Wine: Gewurztraminer type with a pH of 3.8; • Add 10 mM of cysteine, glutathione or methionine, for 3 wine samples; • Weigh four times 8 mg of the pre-purified extract obtained from the sequence of steps 1, 2 and 4 of the above method; • Dissolve each pre-purified extract in wine, wine in the presence of cysteine, wine in the presence of glutathione and wine in the presence of methionine; • Leave in contact for 16 hours, with the plate stirring at 80 rpm and at room temperature; • Take 60 μl of the supernatant; • Add 20 μl of Laemmli 4×; • Place 50 μl on SDS PAGE gel.

For the compound `[Ca+2].[Cl-].[Cl-]` [CaCl2, calcium chloride], the “effect on the hydrolysis of wine proteins” value was “positive effect”.
